IC50 and Km data for five compounds are collected here from paper PMC12540682, “Purification and biochemical characterization of L-glutaminase from Aspergillus oryzae with potential biotechnological applications in synthesis of L-theanine and as antitumor agent” (Scientific Reports, 2025).

The term IC50 denotes the midpoint of a concentration-inhibition curve. High values mean lower potency, low ones higher potency. The Km is the substrate concentration at which the rate is half of its maximum.

Experiment [1] concerns the target T1, L-glutaminase (Glut) from Aspergillus oryzae EG-RE9.
T1 construct: gene gtaA; native extracellular enzyme purified from culture filtrate (ammonium sulfate, DEAE-cellulose, Sephadex G-200); 65 kDa by SDS-PAGE
Put plainly: residual activity after preincubation, ammonia release (Nessler). The format is biochemical. The note with it: 0.1 M phosphate pH 7.0, 20 min preincubation at 37 °C, covalent. As to the method: residual activity after preincubation, ammonia release (Nessler) on L-glutaminase (Glut) from Aspergillus oryzae EG-RE9 | The IC50 of BD, NBS, DEPC, and NEM for A. oryzae L-glutaminase were […]

Experiment [2] has as its system T1, L-glutaminase (Glut) from Aspergillus oryzae EG-RE9. The experiment can be described thus: ammonia release (Nessler), Lineweaver-Burk. The format is biochemical. As to conditions: pH 7.0, 35 °C, 1 h; L-glutamine 0.25-12 mM.

Take `CCN1C(=O)C=CC1=O` [N-ethylmaleimide]: the IC50 in experiment [1] (group-specific modifier of Cys) was 4.8 mM.
`CCOC(=O)OC(=O)OCC` [diethyl pyrocarbonate]: in experiment [1] (group-specific modifier of His), the IC50 came to 7 mM.
For `NC(=O)CC[C@H](N)C(=O)O` [L-glutamine], in experiment [2], the Km came to 1400 µM.
Compound `CC(=O)C(C)=O` [butanedione] registered an IC50 in experiment [1] (group-specific modifier of Arg) of 6.6 mM.
In turn, `O=C1CCC(=O)N1Br` [N-bromosuccinimide] gave a half-maximal inhibitory concentration (IC50) in experiment [1] (group-specific modifier of Trp) of 5.7 mM.
